This passage reports Kd results from patent publication US20240116892A1, “HETEROCYCLIC AMIDE AND UREA COMPOUNDS AS JAK2 INHIBITORS” (Ajax Therapeutics, Inc., priority 2022, published 2024).

In the assay the target is JAK2 (JH1 domain-catalytic, Y1007F, Y1008F) kinase (Homo sapiens (Human), UniProt O60674, Y1007F/Y1008F). Nature of the assay: JAK2 JH1 Domain Binding Assay. Conditions: qPCR readout. In short, it runs like this: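 JH1 catalytic domain (Y1007F/Y1008F) expressed as NFkB DNA-binding-domain fusion in HEK293 cells, DNA-tagged. Competition with immobilized biotinylated ligand on streptavidin beads, 1 h at RT in PBS/Tween/BSA/DTT; bound kinase eluted with free ligand and quantified by qPCR.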
(In general: In qPCR the cycle at which signal appears reflects the starting amount.)

Sequence of JAK2 (JH1 domain-catalytic, Y1007F, Y1008F) kinase (O60674 849-1124 Y1007F/Y1008F): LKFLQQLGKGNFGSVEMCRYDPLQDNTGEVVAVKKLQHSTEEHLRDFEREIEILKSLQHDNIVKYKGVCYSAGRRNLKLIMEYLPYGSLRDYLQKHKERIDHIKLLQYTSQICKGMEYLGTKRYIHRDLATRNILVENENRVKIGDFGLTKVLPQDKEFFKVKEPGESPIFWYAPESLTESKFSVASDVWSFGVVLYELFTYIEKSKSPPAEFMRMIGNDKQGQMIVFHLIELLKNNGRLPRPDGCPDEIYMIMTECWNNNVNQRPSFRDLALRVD

As usually defined, the Kd is the equilibrium constant for the complex coming apart. A higher Kd goes with weaker binding. Compound `COc1c[nH]c2ncc([C@H]3CC[C@@H](N(C)C(=O)Nc4cc(C(F)(F)F)cn(C)c4=O)CC3)nc12` [Example I-171, cis-1-(4-(7-methoxy-5H-pyrrolo[2,3-b]pyrazin-2-yl)cyclohexyl)-1-methyl-3-(1-methyl-2-oxo-5-(trifluoromethyl)-1,2-dihydropyridin-3-yl)urea] came in with a Kd of 50 to 1000 nM.

`CN(C(=O)Nc1cc(C(F)(F)F)cn(C)c1=O)C1CCN(c2cnc3cncn3c2)CC1` [Example I-91, 1-(1-(imidazo[1,5-a]pyrimidin-3-yl)piperidin-4-yl)-1-methyl-3-(1-methyl-2-oxo-5-(trifluoromethyl)-1,2-dihydropyridin-3-yl)urea] registered a Kd of 50 to 1000 nM. For `C[C@H]1CN(c2cnc3[nH]ccc3n2)CC[C@H]1N(C)C(=O)Nc1cc(C(F)(F)F)cn(C)c1=O` [Example I-58-b, 1-methyl-1-((3S,4R)-3-methyl-1-(5H-pyrrolo[2,3-b]pyrazin-2-yl)piperidin-4-yl)-3-(1-methyl-2-oxo-5-(trifluoromethyl)-1,2-dihydropyridin-3-yl)urea], the dissociation constant Kd is less than 10 nM.

`COc1n[nH]c2ncc(N3CC[C@@H](N(C)C(=O)Nc4cc(C(F)(F)F)cn(C)c4=O)[C@H](OC)C3)cc12` [Example I-108-a, 1-((3R,4R)-3-methoxy-1-(3-methoxy-1H-pyrazolo[3,4-b]pyridin-5-yl)piperidin-4-yl)-1-methyl-3-(1-methyl-2-oxo-5-(trifluoromethyl)-1,2-dihydropyridin-3-yl)urea] gave a Kd of 10 to 50 nM. Take `Cn1cc(C(F)(F)F)cc(NC(=O)N2CC=CC23CCN(c2cnc4[nH]ccc4n2)CC3)c1=O` [Example I-78, N-(1-methyl-2-oxo-5-(trifluoromethyl)-1,2-dihydropyridin-3-yl)-8-(5H-pyrrolo[2,3-b]pyrazin-2-yl)-1,8-diazaspiro[4.5]dec-3-ene-1-carboxamide]: the dissociation constant Kd was 10 to 50 nM. With `CC(=O)Nc1cnc(N2CC[C@H](N(C)C(=O)Nc3cc(C(F)(F)F)cn(C)c3=O)C[C@@H]2C)cn1` [Example I-134-a, N-(5-((2S,4S)-2-methyl-4-(1-methyl-3-(1-methyl-2-oxo-5-(trifluoromethyl)-1,2-dihydropyridin-3-yl)ureido)piperidin-1-yl)pyrazin-2-yl)acetamide], the Kd lay within 50 to 1000 nM. Consider `CN(C(=O)Nc1cc(C(F)(F)F)cn(C)c1=O)[C@@H]1CC=C(c2cnc3[nH]ccc3n2)CC1` (single isomer, unassigned) [Example I-82-a], for which the Kd is less than 10 nM.

On to `CO[C@H]1CN(c2cnc3[nH]cc(C)c3n2)CC[C@@H]1N(C)C(=O)Nc1cc(C(F)(F)F)cn(C)c1=O` [Example I-118-b, 1-((3S,4S)-3-methoxy-1-(7-methyl-5H-pyrrolo[2,3-b]pyrazin-2-yl)piperidin-4-yl)-1-methyl-3-(1-methyl-2-oxo-5-(trifluoromethyl)-1,2-dihydropyridin-3-yl)urea], for which the Kd fell in the range of 50 to 1000 nM. Consider `Cc1cc2nc(N3CCC(N(C)C(=O)Nc4cc(C(F)(F)F)cn(C)c4=O)C(F)(F)C3)cnc2[nH]1` (single isomer, unassigned) [Example I-37-a, (R)- or (S)-1-(3,3-difluoro-1-(6-methyl-5H-pyrrolo[2,3-b]pyrazin-2-yl)piperidin-4-yl)-1-methyl-3-(1-methyl-2-oxo-5-(trifluoromethyl)-1,2-dihydropyridin-3-yl)urea], for which the Kd was less than 10 nM. In turn, `COCCOc1n[nH]c2ncc(N3CC[C@@H]4[C@@H](C3)OCCN4C(=O)Nc3cc(C(F)(F)F)cn(C)c3=O)cc12` [Example I-162-b, (4aR,8aR)-6-(3-(2-methoxyethoxy)-1H-pyrazolo[3,4-b]pyridin-5-yl)-N-(1-methyl-2-oxo-5-(trifluoromethyl)-1,2-dihydropyridin-3-yl)octahydro-1H-pyrido[3,4-b][1,4]oxazine-1-carboxamide] displayed a Kd of 10 to 50 nM. With `COCCOc1n[nH]c2ncc(N3CC[C@@H](N(C)C(=O)Nc4cc(C(F)(F)F)cn(C)c4=O)[C@@H](F)C3)cc12` [Example I-104-a, 1-((3S,4R)-3-fluoro-1-(3-(2-methoxyethoxy)-1H-pyrazolo[3,4-b]pyridin-5-yl)piperidin-4-yl)-1-methyl-3-(1-methyl-2-oxo-5-(trifluoromethyl)-1,2-dihydropyridin-3-yl)urea], the Kd is less than 10 nM.

In turn, `CN(C(=O)Nc1cc(C(F)(F)F)cn(C)c1=O)[C@H]1C[C@H]2C[C@@H]1CN2c1cnc2[nH]ccc2n1` [Example I-43-b, 1-((1R,4R,5S)-2-(5H-pyrrolo[2,3-b]pyrazin-2-yl)-2-azabicyclo[2.2.1]heptan-5-yl)-1-methyl-3-(1-methyl-2-oxo-5-(trifluoromethyl)-1,2-dihydropyridin-3-yl)urea] gave a dissociation constant Kd of 10 to 50 nM. `[2H]C1([2H])C[C@H](N(C)C(=O)Nc2cc(C(F)(F)F)cn(C)c2=O)[C@@H](OC)C([2H])([2H])N1c1cnc2[nH]ncc2c1` [Example I-153-b, 1-((3S,4S)-3-methoxy-1-(1H-pyrazolo[3,4-b]pyridin-5-yl)piperidin-4-yl-2,2,6,6-d4)-1-methyl-3-(1-methyl-2-oxo-5-(trifluoromethyl)-1,2-dihydropyridin-3-yl)urea]: the Kd fell in the range of 10 to 50 nM.

Compound `CN(C(=O)Nc1cc(C(F)(F)F)cn(C)c1=O)C12CCC(c3cnc4[nH]ncc4c3)(CC1)OC2` [Example I-168, 1-(1-(1H-pyrazolo[3,4-b]pyridin-5-yl)-2-oxabicyclo[2.2.2]octan-4-yl)-1-methyl-3-(1-methyl-2-oxo-5-(trifluoromethyl)-1,2-dihydropyridin-3-yl)urea] registered a Kd of less than 10 nM. As for `COc1n[nH]c2ncc(N3CC[C@H](N(C)C(=O)Nc4cc(C(F)(F)F)cn(C)c4=O)[C@@H](OC)C3)cc12` [Example I-108-b, 1-((3S,4S)-3-methoxy-1-(3-methoxy-1H-pyrazolo[3,4-b]pyridin-5-yl)piperidin-4-yl)-1-methyl-3-(1-methyl-2-oxo-5-(trifluoromethyl)-1,2-dihydropyridin-3-yl)urea], the figure is 10 to 50 nM; as for `CNc1n[nH]c2ncc(N3CC[C@H](N(C)C(=O)Nc4cc(C(F)(F)F)cn(C)c4=O)[C@H](F)C3)cc12` [Example I-97-b, 1-((3R,4S)-3-fluoro-1-(3-(methylamino)-1H-pyrazolo[3,4-b]pyridin-5-yl)piperidin-4-yl)-1-methyl-3-(1-methyl-2-oxo-5-(trifluoromethyl)-1,2-dihydropyridin-3-yl)urea], less than 10 nM. Then `CN(C(=O)Nc1cc(C(F)(F)F)cn(C)c1=O)C1CCCN(c2cnc3[nH]ccc3n2)CC1` (single isomer, unassigned) [Example I-41-b, (S)- or (R)-1-(1-(5H-pyrrolo[2,3-b]pyrazin-2-yl)azepan-4-yl)-1-methyl-3-(1-methyl-2-oxo-5-(trifluoromethyl)-1,2-dihydropyridin-3-yl)urea], with 50 to 1000 nM; and `COc1c[nH]c2ncc(N3CC[C@H]4[C@H](C3)OCCN4C(=O)Nc3cc(C(F)(F)F)cn(C)c3=O)nc12` [Example I-163-a, (4aS,8aS)-6-(7-methoxy-5H-pyrrolo[2,3-b]pyrazin-2-yl)-N-(1-methyl-2-oxo-5-(trifluoromethyl)-1,2-dihydropyridin-3-yl)octahydro-1H-pyrido[3,4-b][1,4]oxazine-1-carboxamide], with 10 to 50 nM; and `CN(C(=O)Nc1cc(C(F)(F)F)cn(C)c1=O)[C@@H]1CC=C(c2cnc3[nH]ncc3n2)CC1` (single isomer, unassigned) [Example I-160-a, (S)- or (R)-1-(4-(1H-pyrazolo[3,4-b]pyrain-5-yl)cyclohex-3-en-1-yl)-1-methyl-3-(2-methyl-2-oxo-5-(trifluoromethyl)-1,2-dihydropyridin-3-yl)urea], with less than 10 nM. As for `CC(=O)Nc1cnc(N2CC[C@@H](N(C)C(=O)Nc3cc(C(F)(F)F)cn(C)c3=O)C[C@H]2C)cn1` [Example I-134-b, N-(5-((2R,4R)-2-methyl-4-(1-methyl-3-(1-methyl-2-oxo-5-(trifluoromethyl)-1,2-dihydropyridin-3-yl)ureido)piperidin-1-yl)pyrazin-2-yl)acetamide], the Kd fell in the range of 10 to 50 nM. `CN1CCN(c2n[nH]c3ncc(N4CC[C@@H](N(C)C(=O)Nc5cc(C(F)(F)F)cn(C)c5=O)C(F)(F)C4)cc23)CC1` (single isomer, unassigned) [Example I-154-a, (R)- or (S)-1-(3,3-difluoro-1-(3-(4-methylpiperazin-1-yl)-1H-pyrazolo[3,4-b]pyridin-5-yl)piperidin-4-yl)-1-methyl-3-(1-methyl-2-oxo-5-(trifluoromethyl)-1,2-dihydropyridin-3-yl)urea] had a Kd of less than 10 nM. Regarding `Cn1cc(C(F)(F)F)cc(NC(=O)C2(C3CCN(c4cnc5[nH]cc(F)c5n4)CC3)CC2)c1=O` [Example I-65, 1-(1-(7-fluoro-5H-pyrrolo[2,3-b]pyrazin-2-yl)piperidin-4-yl)-N-(1-methyl-2-oxo-5-(trifluoromethyl)-1,2-dihydropyridin-3-yl)cyclopropane-1-carboxamide], the Kd is less than 10 nM. `Cn1cc(C(F)(F)F)cc(NC(=O)N(C)[C@H]2CC[C@H](c3cnc4[nH]ccc4n3)CC2)c1=O` [Example I-120-a, trans-1-(4-(5H-pyrrolo[2,3-b]pyrazin-2-yl)cyclohexyl)-1-methyl-3-(1-methyl-2-oxo-5-(trifluoromethyl)-1,2-dihydropyridin-3-yl)urea] yielded a Kd of 50 to 1000 nM. On to `COc1n[nH]c2ncc(N3CC[C@@H](N(C)C(=O)Nc4cc(C(F)(F)F)cn(C)c4=O)C[C@H]3C)cc12` [Example I-133-b, 1-((2R,4R)-1-(3-methoxy-1H-pyrazolo[3,4-b]pyridin-5-yl)-2-methylpiperidin-4-yl)-1-methyl-3-(1-methyl-2-oxo-5-(trifluoromethyl)-1,2-dihydropyridin-3-yl)urea], for which the Kd is less than 10 nM.

`CN(C(=O)Nc1cc(C(F)(F)F)cn(C)c1=O)C1CCN(c2cnc3[nH]cc(C4CC4)c3n2)CC1` [Example I-40, 1-(1-(7-cyclopropyl-5H-pyrrolo[2,3-b]pyrazin-2-yl)piperidin-4-yl)-1-methyl-3-(1-methyl-2-oxo-5-(trifluoromethyl)-1,2-dihydropyridin-3-yl)urea] returned a Kd of less than 10 nM.
